Source: patent US20070259837A1, “Use of Non-Glucocorticoid Steroids for the Treatment of Muscular Dystrophy” (SANTHERA PHARMACEUTICALS (SCHWEIZ) AG, priority 2004, published 2007)
Read-outs that look alike come from different tables or passages of the source.

Test system: utrophin protein in human muscle cells derived from DMD patients
Test: Cell-based ELISA for normalized utrophin protein level in primary human myotube cultures
Conditions: for % UTR vs. PDN (normalized utrophin protein as % of PDN-treated sister cultures): same experiment; for activity at 0.5 µM: Myotube, read-out: % UTR vs. DMSO (normalized utrophin protein over DMSO-solvent treated control)
Procedure: The method used to detect and determine utrophin-inducing activity of non-glucocorticoid steroids has been described previously (Courdier-Fruh, I., Barman, L., Briguet, A. & Meier, T.; 2002, Neuromuscul. Disord.; 12 Suppl:S95). Briefly, primary human muscle cell cultures were prepared according to standard protocols (Askanas V, Kwan H, Alvarez R B, Engel W K, Kobayashi T, Martinuzzi A, Hawkins E F., 1987, J Neurocytol., 16:523-537). Test compounds and the glucocorticoid 6α-methylprednisolone-21 sodium succinate (Pharmacia & Upjohn; Solu-Medrol®, PDN) as reference compound were applied at 500 nM final concentration as soon as myoblasts started to differentiate into myotubes. Incubation with the test compound was ended as soon as well differentiated myotubes have formed, typically resulting in an incubation time with a test compound for 3-7 days.
Normalized concentrations of utrophin protein in human muscle cells cultured in microtiter plates were determined by a cell-based enzyme-linked immunosorbent assay (ELISA) procedure that allows a successive readout for the cell density and utrophin protein level. For calibration, the cell density and differentiation was determined by absorbance measurements of the total dehydrogenase enzyme activity in each well using the colorimetric CellTiter 96®AQ One Solution Reagent Proliferation Assay (Promega) according to the manufacturer's recommendation. Subsequently, cells were fixed, washed, permeabilized with 0.5% (v/v) Triton X-100 and unspecific antibody binding-sites were blocked by standard procedures. Utrophin protein levels were determined immunologically with utrophin-specific primary antibodies (mouse monoclonal antibody to the amino terminal portion of utrophin, NCL-DRP2, Novocastra Laboratories) and with appropriate peroxidase-coupled secondary antibodies using QuantaBlu™ Fluorogenic Peroxidase Substrate Kit (Pierce) for detection. Fluorescence measurements were carried out with a multilabel counter (Wallac) at λex=325 nm and at λem=420 nm. The primary readout of this signal is presented in arbitrary units. For calibration, the arbitrary units representing the relative utrophin protein content of each well were divided by the corresponding cell-titer absorbance value to correct for cell density. For comparison between experiments, the cell-titer corrected readout for utrophin protein content in each well was expressed in percent of solvent treated control cultures (set to 100%). PDN was included in all experiments as reference glucocorticoid, N=3-5 for each compound tested.
Non-glucocorticoid test compounds, applied in a concentration of 500 nM, were regarded as “positive” in case the increase in the level of utrophin protein was at least 20% (mean value) over control cultures treated with the appropriate dilution of DMSO solvent as control and containing no test compound.
A range of different pharmaceutical compounds were tested for their ability to increase levels of utrophin protein in primary human myotube cultures. The cell-based ELISA protocol used to detect the level of utrophin protein is provided above and described in Courdier-Fruh, I., Barman, L., Briguet, A. & Meier, T, 2002, Neuromuscul. Disord.: 12, Suppl:S95. Briefly, fixed and permeabilized human muscle cells derived from DMD patients and cultured in 96-well cell culture plates were incubated with antibodies specific for utrophin at a dilution of 1:1'000 in blocking solution (phosphate buffered saline (PBS) supplemented with 2% fetal calf serum and 1% bovine serum albumin) for 10-15 hours at 4° C. Following several washing steps with 0.1% Triton X-100 in PBS, peroxidase-coupled secondary antibodies diluted 1:3'000 in blocking solution were applied in each well for 1-2 hours at room temperature. Signal detection, data acquisition and normalization was performed as described above and in Courdier-Fruh, I., Barman, L., Briguet, A. & Meier, T, 2002, Neuromuscul. Disord.: 12, Suppl:S95. […]

[1] = 500 nM compound, human muscle cultures, mean value, N=3-6

Row | SMILES | % UTR vs. PDN (normalized utrophin protein as % of PDN-treated sister cultures) [1] | activity at 0.5 µM (Homo sapiens) | activity at 0.5 µM [1]
1 | CC(C)CCCC(C)[C@H]1CCC2C3C(=O)C=C4C[C@@H](O)CC[C@]4(C)C3CC[C@@]21C (some centres unmarked) [Example 31] | 109% | 137% | 
2 | CC(C)CCCC(C)[C@H]1CCC2C3CC[C@H]4CC(=O)CC[C@]4(C)C3CC[C@@]21C (some centres unmarked) [Example 32] | 104% | 132% | 
3 | CC(C)CCCC(C)[C@H]1CCC2C3=CC[C@H]4C[C@@H](O)CC[C@]4(C)C3CC[C@@]21C (some centres unmarked) [Example 33] | 99% | 125% | 
4 | CC(C)CCCC(C)[C@H]1CCC2C3CC[C@H]4C[C@H](O)CC[C@]4(C)C3CC[C@@]21C (some centres unmarked) [Example 34] | 97% | 125% | 
5 | CC(C)CCCC(C)[C@H]1CCC2C3C[C@@H](O)[C@@]4(O)C[C@@H](O)CC[C@]4(C)C3CC[C@@]21C (some centres unmarked) [Example 35] | 94% | 122% | 
6 | CC(C)C/C=C\C(C)[C@H]1CC[C@@]2(C)C3=CC=C4C(C)(C)[C@@H](O)CC[C@]4(C)C3CC[C@]12C (some centres unmarked) [Example 36] | 96% | 122% | 
7 | CC(C)=CCCC(C)[C@H]1CC[C@@]2(C)C3=C(CC[C@]12C)[C@@]1(C)CC[C@H](O)C(C)(C)C1CC3 (some centres unmarked) [Example 37, Lanosterol] | 102% | 123% | 
8 | C[C@]12CCC3C(CC[C@H]4C[C@@H](OC(=O)c5ccccc5)CC[C@]34C)C1CC[C@@H]2OC(=O)c1ccccc1 (some centres unmarked) [Example 38] | 108% | 126% | 
9 | C[C@]12CC[C@H](OC(=O)c3ccccc3)CC1=CCC1C2CC[C@@]2(C)C1CC[C@@H]2NC(=O)c1ccccc1 (some centres unmarked) [Example 39] | 106% | 121% | 
10 | C#C[C@]1(O)CCC2C3CCC4=CC(=O)CC[C@@H]4C3CC[C@@]21CC (some centres unmarked) [Example 41, Norgestrel] | 103% |  | 130%
11 | C#C[C@]1(OC(C)=O)CC[C@H]2[C@@H]3CCC4=CC(=O)CC[C@@H]4[C@H]3CC[C@@]21C [Example 42, Norethisterone acetate] | 101% |  | 128%
12 | CCC(=O)O[C@H]1CC[C@]2(C)C3CC[C@]4(C)C(=O)CCC4C3CC[C@H]2C1 (some centres unmarked) [Example 43] | 99% | 128% | 
13 | CC(=O)OC1CCC2C3CC[C@H]4C[C@H](O)CC[C@]4(C)C3CC[C@]12C (some centres unmarked) [Example 44] | 99% | 129% | 
14 | C#C[C@]1(OC(C)=O)CCC2C3CCC4=C[C@@H](OC(C)=O)CC[C@@H]4C3CC[C@@]21C (some centres unmarked) [Example 45] | 99% |  | 130%
15 | C[C@]12CCC3C(CC[C@H]4C[C@@H](OC(=O)c5ccccc5)CC[C@]34C)C1CC(=O)C2 (some centres unmarked) [Example 46] | 112% | 131% | 
16 | C[C@@]12C=CCC1C1CC[C@H]3C[C@H](O)CC[C@]3(C)C1CC2 (some centres unmarked) [Example 47] | 98% | 127% | 

Row | SMILES | % UTR vs. PDN (normalized utrophin protein as % of PDN-treated sister cultures) [1] | activity at 0.5 µM (Homo sapiens) | activity at 0.5 µM [1]
17 | CCC(=O)O[C@H]1CCC2C3CCC4=CC(=O)CC[C@]4(C)C3CC[C@@]21C (some centres unmarked) [Example 48, Testosterone propionate] | 98% | 122% | 
18 | C[C@]12CC(=O)C3C(CC[C@H]4C[C@@H](O)CC[C@]34C)C1CCC2=O (some centres unmarked) [Example 49] | 97% | 127% | 
19 | C[C@]12CC[C@H](Cl)CC1=CCC1C2CC[C@]2(C)C(=O)CCC12 (some centres unmarked) [Example 50] | 98% | 123% | 
20 | C[C@]12C=CC(=O)C=C1CCC1C2=CC[C@]2(C)C(C(=O)CN3CCN(c4cc(N5CCCC5)nc(N5CCCC5)n4)CC3)CCC12.O=C(O)/C=C\C(=O)O (some centres unmarked) [Example 51] | 113% | 143% | 
21 | CC(=O)OCC(=O)[C@H]1CCC2C3CC[C@@H]4C[C@H](OC(C)=O)CC[C@]4(C)C3[C@@H](O)C[C@@]21C (some centres unmarked) [Example 52] | 112% | 145% | 
22 | C[C@]12CCC(=O)C=C1CC[C@@H]1[C@@H]2CC[C@@]2(C)[C@H]1CC[C@]2(O)C(=O)CO [Example 53, Cortexolone] | 111% |  | 146%
23 | CC(=O)O[C@@]1(C(C)=O)CCC2C3C[C@H](C)C4=CC(=O)CC[C@]4(C)C3CC[C@@]21C (some centres unmarked) [Example 54] | 106% |  | 135%
24 | CC(=O)O[C@H]1CC[C@]2(C)C3=CC[C@]4(C)C(C(C)=O)=CCC4C3CC[C@H]2C1 (some centres unmarked) [Example 55] | 107% | 125% | 
25 | CC(=O)[C@@]12O[C@@H]1CC1C3CC=C4C[C@@H](O)CC[C@]4(C)C3CC[C@@]12C (some centres unmarked) [Example 56] | 105% | 137% | 
26 | CC(=O)[C@H]1CCC2C3CCC4=CC(=O)CC[C@]4(C)C3[C@H](OC(=O)c3ccccc3)C[C@@]21C (some centres unmarked) [Example 57] | 104% | 120% | 
27 | CC(=O)[C@H]1CCC2C3CCC4=CC(=O)CC[C@]4(C)C3[C@H](O)C[C@@]21C (some centres unmarked) [Example 58] | 102% | 133% | 
28 | CC(=O)OCC(=O)C1=CCC2C3CC[C@H]4C[C@@H](OC(C)=O)CC[C@]4(C)C3CC[C@]12C (some centres unmarked) [Example 59] | 102% | 121% | 
29 | CC(=O)O[C@H]1CC[C@]2(C)C3CC[C@]4(C)C(C(C)=O)=CCC4C3CC[C@H]2C1 (some centres unmarked) [Example 60] | 101% | 127% | 
30 | CC(=O)[C@@]12O[C@@H]1CC1C3CC(C)=C4C[C@@H](O)CC[C@]4(C)C3CC[C@@]12C (some centres unmarked) [Example 61] | 100% | 130% | 
31 | CC(=O)C1CCC2C3CC[C@H]4C[C@@H](O)CC[C@]4(C)C3CC[C@]12C (some centres unmarked) [Example 62] | 99% | 129% | 
